Experimental findings from PMC5641347, “Aii810, a Novel Cold-Adapted N-Acylhomoserine Lactonase Discovered in a Metagenome, Can Strongly Attenuate Pseudomonas aeruginosa Virulence Factors and Biofilm Formation” (Frontiers in Microbiology, 2017) are described below.

This experiment has as its system T1, Aii810.
T1 construct: E. coli BL21(DE3), Ni-NTA
In words: p-nitrophenol release at […] nm, Michaelis-Menten fit. The experiment is classed as biochemical, uncultured bacterium. The settings on record: 20°C, pH 6.5.

As to `CC(=O)Oc1ccc([N+](=O)[O-])cc1` [C2, ρ-nitrophenyl acetate], the Km was found to be 205 µM.
